The text below walks through data of patent publication US20200030288A1, “STATIN FOR PREVENTION/REDUCTION OF ISCHEMIA-RELATED DAMAGE” (Fundacio Institut De Recerca De L'Hospial De La Santa Creu …, priority 2017, published 2020).

In assay [1] the test system is mouse model for myocardial ischemia. The assay can be described thus: Mouse model of myocardial ischemia by coronary ligation: infarct size and 8-OH-dG oxidative damage. Type of assay: in vivo, Male CH3 mice. Conditions: single i.p. dose 15 min after coronary ligation; 45 min ischemia; vs vehicle-control. How it is done: Complete LAD coronary artery ligation was performed as follows. Male CH3 mice (8-10 weeks old, weighing 25-30 g) were intubated and anesthesized with a mixture of O2/isoflurane and mechanically ventilated (rate 90 breaths/min, tidal volume 0.1 mL). Rectal temperature was continuously monitored throughout the surgery and maintained within 37-38° C. using a heat pad and heat lamp. An anterior thoracotomy was performed; the heart was exposed and the LAD coronary artery was occluded with an intramural stitch (7-0 silk suture; consistent ligation of the left coronary artery as it emerges from under the left atrium) for 45 minutes. Success of complete coronary ligation was verified by electrocardiographic visualization of the ST-elevation-MI pattern that was monitored by high frequency ultrasounds with the Vevo2100 from Visualsonics and by the visualization of a pale, hypokinetic ventricle distal to the site of occlusion.
Ischemia was continued for another 30 min after administration of the single dose (i.e. altogether 45 min of ischemia), then mice were sacrificed and the heart was carefully excised for infarct size analysis.
Infarct size was determined by morphometric analysis. For this purpose, all mouse hearts were immersed in fixative solution (4% paraformaldehyde), embedded in OCT compound and cross-sectioned from apex to base (10 μm thick sections 200 μm distanced). Sections were stained with haematoxylin and eosin and morphometric infarct size analysis was determined using image analysis software (ImageJ, NIH). Infarct size was calculated by the sum of myocardial infarct areas between sections and expressed as a percentage of total LV wall. Three measurements per section were determined.
In addition, myocardial oxidative damage was also assessed. For this purpose, ischemic myocardial tissue was cut into 5-μm-thick slices for 8-OH-dG (Abcam ab48508) staining, a measurement indicative of oxidative stress-induced DNA-damage. Staining was calculated by a single blinded observer from an average of 5-fields/animal as % of stained area. Images were captured by Nikon Eclipse 80i microscope and digitized by Retiga 1300i Fast camera.

The test system of assay [2] is hypercholesterolemic pigs with myocardial ischemia. The assay can be described thus: Neutrophil infiltration (anti-Neutrophil Elastase staining) in ischemic myocardium of hypercholesterolemic pigs. Type of assay: in vivo. To be noted: single i.v. dose 15 min after onset of ischemia, vs controls. How it is done: To this end, ischemic myocardial tissue of all hypercholesterolemic pigs included in Example 12 was obtained, embedded in OCT, and stained for neutrophils detection (anti-Neutrophil Elastase; Abcam). Staining was calculated by a single blinded observer from an average of 5-fields/animal as % of stained area. Images were captured by Nikon Eclipse 80i microscope and digitized by Retiga 1300i Fast camera.

Another assay deals with caspase-3. The assay can be described thus: Caspase-3 activation (cleaved / total caspase-3) in pig myocardium by Western blot. The class given is in vivo, pigs. How it is done:
Myocardial tissue of all pigs included in Example 1 and Example 2 was obtained, pulverized and processed with lysis buffer for protein isolation as detailed in Example 6. Protein was quantified by the Pierce method and Western Blot analysis was performed to assess the levels of phosphorylated p53 (Ser15), total p53, cleaved caspase-3 and total caspase-3. The ratios phosphorylated p53/total p53 and cleaved Casp3/total caspase3 were calculated to ascertain how much of protein was activated.

On to `CC(C)c1c(C(=O)Nc2ccccc2)c(-c2ccccc2)c(-c2ccc(F)cc2)n1CC[C@@H](O)C[C@@H](O)CC(=O)O` [atorvastatin], for which the “reduction of size of infarction (% of total LV wall)” value in assay [1] is reported as “around 50%”. Further, the “reduction in neutrophil myocardial infiltration” value in assay [2] turned out to be 57%. In addition, in the assay on caspase-3 (ischemic myocardium), the “levels of cleaved (active) caspase 3” value is given as “reduced”. Besides, the “total caspase-3” value in the assay on caspase-3 (myocardium) is on record as “no changes”.
